Assay results taken from patent publication US9376454B2, “Beta-lactamase inhibitors” (priority 2013, dated 2016).

Tests used:
Type in all cases: biochemical
[1] = molecular target: T1, OXA-1 β-lactamase (Escherichia coli, UniProt P13661); assay: β-Lactamase inhibition enzyme assay, OXA-1; settings: Nitrocefin 100 μM as substrate, 486 nm; 15 min at 37° C. with enzyme, PBS pH 7.4; read-out: Class D OXA-1 IC50
T1 construct: made in house; host or cells: E. coli BL21(DE3)
Protocol: (§1) For SHV-5, Kpc-2, p99AmpC and OXA-1 β-lactamases, E. coli BL21(DE3) bacterial cells carrying expression plasmids (expressed as native untagged proteins) for the individual β-lactamases were grown in 1 L of Superbroth (Teknova Inc. Hollister, Calif.) supplemented with 100 μg/ml kanamycin selection and 1×5052 (0.5% glycerol, 0.05% glucose and 0.2% α-lactose) at 35° C. for 18-20 hours. Cells were harvested by centrifugation (4,000×g, 4° C., 20 min), resuspended in 50 ml of 10 mM HEPES pH 7.5 ( 1/20 of the initial volume). The cells were lysed by sonication (5 pulses of 45 seconds) at 45 W on ice. The lysates were clarified by centrifugation at 10,000×g for 40 minutes at 4° C. Samples were diluted 5-fold in 50 mM sodium acetate pH 5.0, stored overnight at 4° C., after which they were centrifuged at 10,000×g for 30 minutes to clarify, and filtered through 0.45 μm filters. The samples were loaded onto a 5 ml Capto S sepharose cation exchange column (GE Healthcare) pre-equilibrated with 50 mM sodium acetate pH 5.0. The column was washed with 5 column volumes of 50 mM sodium acetate pH 5.0 to wash out unbound protein and a linear gradient of NaCl (0 to 500 mM) was used to elute the protein (over 16 CV) from the column. Fractions were assayed for β-lactamase activity using Centa (Calbiochem, Gibbstown, N.J.) or Nitrocefin (EMD Millipore chemicals, Darmstadt, Germany) as a reporter β-lactamase substrate for activity in the isolated fractions. Active fractions were pooled, concentrated and further purified by gel filtration chromatography on a Superdex 75 prep grade gel filtration column (GE Healthcare, Piscataway, N.J.) pre-equilibrated in 50 mM Hepes pH 7.5, 150 mM NaCl. Active fractions were pooled concentrated, quantitated by BCA protein determination (Thermo Scientific, Rockford, Ill.), dialyzed into PBS and frozen at −80° C. in 20% glycerol until use.
(§2) An equal volume of diluted enzyme stock was added, and the plates were incubated at 37° C. for 15 min. Nitrocefin was used as substrate for p99 AmpC, VIM-2 and OXA-1 and dispensed into each well at a final concentration of 100 μM. Absorbance at 486 nm was immediately monitored for 10 min using a Biotek Powerwave XS2 microplate spectrophotometer using the GEN5 softweare package (Biotek Instruments, Winooski Vt.). In an analogous fashion, imipenem was used as substrate for Kpc-2 and Cefotaxime was used for SHV-5, while changes in absorbance upon hydrolysis of the β-lactam ring were monitored at 300 nm and 260 nm respectively in UV-transparent 96-well microtiter assay plates. Maximum rates of hydrolysis were compared to those in control wells (without inhibitors), and percentages of enzyme inhibition were calculated for each concentration of inhibitor. The concentration of inhibitor needed to reduce the initial rate of hydrolysis of substrate by 50% (IC50) was calculated as the residual activity of β-lactamase at 486 nm using GraFit version 7 kinetics software package (Erithacus Software, Surrey, UK).

[2] = molecular target: T2, KPC-2 β-lactamase (Klebsiella pneumoniae, UniProt Q9F663); assay: β-Lactamase inhibition enzyme assay, KPC-2; settings: imipenem as substrate, 300 nm; 15 min at 37° C. with enzyme, PBS pH 7.4; read-out: Class A KPC-2 IC50
T2 construct: made in house; host or cells: E. coli BL21(DE3)
Protocol: as §1, §2

[3] = molecular target: T3, p99 AmpC β-lactamase (Enterobacter cloacae, UniProt P05364); assay: β-Lactamase inhibition enzyme assay, p99 AmpC
T3 construct: made in house; host or cells: E. coli BL21(DE3)
Protocol: as §1, §2

[4] = molecular target: T4, SHV-5 β-lactamase (Klebsiella pneumoniae, UniProt P0A3M1); assay: β-Lactamase inhibition enzyme assay, SHV-5
T4 construct: made in house; host or cells: E. coli BL21(DE3)
Protocol: as §1, §2

[5] = molecular target: T5, VIM-2 metallo β-lactamase (Pseudomonas aeruginosa, UniProt Q9K2N0); assay: β-Lactamase inhibition enzyme assay, VIM-2; settings: Nitrocefin 100 μM as substrate, 486 nm; 15 min at 37° C. with enzyme, PBS pH 7.4; read-out: Class B VIM-2 IC50
T5 construct: made in house; host or cells: E. coli BL21(DE3)
Protocol: as §1
For Vim-2 metallo β-lactamase, the procedure was identical with the following exceptions, first the protein was not pH adjusted to pH 5 with 50 mM sodium acetate, second, the chromatography step was changed to a 5 ml Q sepharose anion exchange column pre-equilibrated with 50 mM Hepes pH 7.5, and elution of the protein was achieved by a linear gradient of NaCl (0-600 mM). Finally, the VIM-2 purification required a second run (3rd step) on the Q sepharose anion exchange column to achieve acceptable purity (>90%).
as §2

T4 sequence (P0A3M1 22-286): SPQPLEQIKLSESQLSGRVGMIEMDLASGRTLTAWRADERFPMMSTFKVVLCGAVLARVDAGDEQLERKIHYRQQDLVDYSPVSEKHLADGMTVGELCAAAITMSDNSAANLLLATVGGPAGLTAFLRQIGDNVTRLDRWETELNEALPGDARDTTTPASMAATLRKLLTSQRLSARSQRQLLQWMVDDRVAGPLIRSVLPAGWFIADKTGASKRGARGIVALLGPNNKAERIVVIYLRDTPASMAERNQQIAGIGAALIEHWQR
T2 sequence (Q9F663 25-293, looked up): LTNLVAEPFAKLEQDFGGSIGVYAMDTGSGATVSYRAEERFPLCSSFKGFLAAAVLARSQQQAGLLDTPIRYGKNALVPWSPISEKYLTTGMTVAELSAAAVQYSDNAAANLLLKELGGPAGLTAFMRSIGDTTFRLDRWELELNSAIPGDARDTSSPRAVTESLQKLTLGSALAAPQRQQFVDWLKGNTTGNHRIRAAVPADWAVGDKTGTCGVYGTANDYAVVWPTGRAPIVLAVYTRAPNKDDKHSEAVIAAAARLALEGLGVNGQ
T1 sequence (P13661 26-276): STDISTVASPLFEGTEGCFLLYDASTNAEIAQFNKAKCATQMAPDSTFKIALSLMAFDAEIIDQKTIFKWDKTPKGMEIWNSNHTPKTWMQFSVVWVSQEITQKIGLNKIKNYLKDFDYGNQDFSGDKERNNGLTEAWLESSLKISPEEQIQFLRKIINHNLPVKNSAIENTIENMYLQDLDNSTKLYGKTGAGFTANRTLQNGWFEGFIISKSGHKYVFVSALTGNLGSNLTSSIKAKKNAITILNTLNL
T3 sequence (P05364 21-381): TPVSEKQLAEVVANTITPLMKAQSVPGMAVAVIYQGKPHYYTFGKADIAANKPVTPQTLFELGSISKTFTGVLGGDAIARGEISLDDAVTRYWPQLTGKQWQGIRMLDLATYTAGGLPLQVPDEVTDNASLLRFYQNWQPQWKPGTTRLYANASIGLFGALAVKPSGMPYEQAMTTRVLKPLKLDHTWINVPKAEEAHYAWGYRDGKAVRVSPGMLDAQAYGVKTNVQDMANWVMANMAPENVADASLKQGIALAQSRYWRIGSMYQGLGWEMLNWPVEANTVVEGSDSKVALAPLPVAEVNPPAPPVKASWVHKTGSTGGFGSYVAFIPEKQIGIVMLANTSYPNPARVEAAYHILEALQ

Row | Compound | IC50 [1] | IC50 [2] | IC50 [3] | IC50 [4] | IC50 [5]
1 | CNCc1ccc(C(=O)N[C@H]2Cc3cccc(C(=O)O)c3OB2O)cc1CNC [Example 19, (R)-3-(3,4-bis((methylamino)methyl)benzamido)-2-hydroxy-3,4-dihydro-2H-benzo[e][1,2]oxaborinine-8-carboxylic acid] | < 100 nM | < 100 nM | < 100 nM | < 100 nM | < 100 nM
2 | CN1CCc2c(C(=O)N[C@H]3Cc4cccc(C(=O)O)c4OB3O)csc2C1 [Example 6, (R)-2-hydroxy-3-(6-methyl-4,5,6,7-tetrahydrothieno[2,3-c]pyridine-3-carboxamido)-3,4-dihydro-2H-benzo[e][1,2]oxaborinine-8-carboxylic acid] | < 100 nM | < 100 nM | < 100 nM | < 100 nM | 1000 to 10000 nM
3 | N=C(N)N1Cc2ccc(C(=O)N[C@H]3Cc4cccc(C(=O)O)c4OB3O)cc2C1 [Example 16, (R)-3-(2-carbamimidoylisoindoline-5-carboxamido)-2-hydroxy-3,4-dihydro-2H-benzo[e][1,2]oxaborinine-8-carboxylic acid] | < 100 nM | < 100 nM | < 100 nM | < 100 nM | < 100 nM
4 | NCCN1Cc2ccc(CC(=O)N[C@H]3Cc4cccc(C(=O)O)c4OB3O)cc2C1 [Example 49, (R)-3-{2-[2-(2-Amino-ethyl)-2,3-dihydro-1H-isoindol-5-yl]-acetylamino}-2-hydroxy-3,4-dihydro-2H-benzo[e][1,2]oxaborinine-8-carboxylic acid] | < 100 nM | < 100 nM | < 100 nM | < 100 nM | 100 to 1000 nM
5 | O=C(O)c1cccc2c1OB(O)[C@@H](NC(=O)C(F)(F)c1ccccc1)C2 [Example 2, (R)-3-(2,2-difluoro-2-phenylacetamido)-2-hydroxy-3,4-dihydro-2H-benzo[e][1,2]oxaborinine-8-carboxylic acid] | < 100 nM | < 100 nM | < 100 nM | < 100 nM | 1000 to 10000 nM
6 | O=C(N[C@H]1Cc2cccc(C(=O)O)c2OB1O)c1ccc(-c2ncc[nH]2)cc1 [Example 47, (R)-2-Hydroxy-3-[4-(1H-imidazol-2-yl)-benzoylamino]-3,4-dihydro-2H-benzo[e][1,2]oxaborinine-8-carboxylic acid] | < 100 nM | < 100 nM | < 100 nM | < 100 nM | 100 to 1000 nM
7 | NCCNC(=O)c1ccccc1C(=O)N[C@H]1Cc2cccc(C(=O)O)c2OB1O [Example 54, (R)-3-(2-(2-aminoethylcarbamoyl)benzamido)-2-hydroxy-3,4-dihydro-2H-benzo[e][1,2]oxaborinine-8-carboxylic acid] | 1000 to 10000 nM | 100 to 1000 nM | < 100 nM | 100 to 1000 nM | 1000 to 10000 nM
8 | Cn1ccc2ccc(C(=O)N[C@H]3Cc4cccc(C(=O)O)c4OB3O)cc21 [Example 43, (R)-2-Hydroxy-3-[(1-methyl-1H-indole-6-carbonyl)-amino]-3,4-dihydro-2H-benzo[e][1,2]oxaborinine-8-carboxylic acid] | < 100 nM | < 100 nM | < 100 nM | 100 to 1000 nM | 100 to 1000 nM
9 | O=C(N[C@H]1Cc2cccc(C(=O)O)c2OB1O)c1ccc(-c2ccccn2)cc1 [Example 24, (R)-2-hydroxy-3-(4-(pyridin-2-yl)benzamido)-3,4-dihydro-2H-benzo[e][1,2]oxaborinine-8-carboxylic acid] | < 100 nM | < 100 nM | < 100 nM | < 100 nM | 100 to 1000 nM
10 | NCc1ccc(C(=O)N[C@H]2Cc3cccc(C(=O)O)c3OB2O)cc1CN [Example 14, (R)-3-(3,4-bis(aminomethyl)benzamido)-2-hydroxy-3,4-dihydro-2H-benzo[e][1,2]oxaborinine-8-carboxylic acid] | < 100 nM | 100 to 1000 nM | < 100 nM | 100 to 1000 nM | < 100 nM
11 | CN(C)Cc1ccc(C(=O)N[C@H]2Cc3cccc(C(=O)O)c3OB2O)cc1N [Example 18, (R)-3-(3-amino-4-((dimethylamino)methyl)benzamido)-2-hydroxy-3,4-dihydro-2H-benzo[e][1,2]oxaborinine-8-carboxylic acid] | < 100 nM | < 100 nM | < 100 nM | < 100 nM | 100 to 1000 nM
12 | O=C(N[C@H]1Cc2cccc(C(=O)O)c2OB1O)c1cnc2c(c1)CNC2 [Example 50, (3R)-3-(6,7-dihydro-5H-pyrrolo[3,4-b]pyridine-3-carbonylamino)-2-hydroxy-3,4-dihydro-1,2-benzoxaborinine-8-carboxylic acid] | < 100 nM | < 100 nM | < 100 nM | < 100 nM | 100 to 1000 nM
13 | O=C(N[C@H]1Cc2cccc(C(=O)O)c2OB1O)c1ccc2cc[nH]c2c1 [Example 30, (R)-2-hydroxy-3-(1H-indole-6-carboxamido)-3,4-dihydro-2H-benzo[e][1,2]oxaborinine-8-carboxylic acid] | < 100 nM | < 100 nM | < 100 nM | 100 to 1000 nM | 100 to 1000 nM
14 | O=C(N[C@H]1Cc2cccc(C(=O)O)c2OB1O)c1csc2c1CCNC2 [Example 4, (R)-2-hydroxy-3-(4,5,6,7-tetrahydrothieno[2,3-c]pyridine-3-carboxamido)-3,4-dihydro-2H-benzo[e][1,2]oxaborinine-8-carboxylic acid] | < 100 nM | < 100 nM | < 100 nM | < 100 nM | 100 to 1000 nM
15 | O=C(Cc1ccc(O)c(O)c1)N[C@H]1Cc2cccc(C(=O)O)c2OB1O [Example 38, (R)-3-(2-(3,4-dihydroxyphenyl)acetamido)-2-hydroxy-3,4-dihydro-2H-benzo[e][1,2]oxaborinine-8-carboxylic acid] | < 100 nM | < 100 nM | < 100 nM | < 100 nM | 100 to 1000 nM
16 | CC(C)NCc1ccc(C(=O)N[C@H]2Cc3cccc(C(=O)O)c3OB2O)cc1CNC(C)C [Example 56, (R)-3-(3,4-bis((isopropylamino)methyl)benzamido)-2-hydroxy-3,4-dihydro-2H-benzo[e][1,2]oxaborinine-8-carboxylic acid] | < 100 nM | < 100 nM | < 100 nM | < 100 nM | 100 to 1000 nM
17 | O=C(Cc1ccc2cc[nH]c2c1)N[C@H]1Cc2cccc(C(=O)O)c2OB1O [Example 46, (R)-2-Hydroxy-3-(2-1H-indol-6-yl-acetylamino)-3,4-dihydro-2H-benzo[e][1,2]oxaborinine-8-carboxylic acid] | < 100 nM | < 100 nM | < 100 nM | < 100 nM | < 100 nM
18 | O=C(O)c1cccc2c1OB(O)[C@@H](NC(=O)c1c[nH]c3ncccc13)C2 [Example 8, (R)-2-hydroxy-3-(1H-pyrrolo[2,3-b]pyridine-3-carboxamido)-3,4-dihydro-2H-benzo[e][1,2]oxaborinine-8-carboxylic acid] |  | 100 to 1000 nM | < 100 nM | < 100 nM | 1000 to 10000 nM
